Data as given in US8563542B2 (Cyclacel Limited, priority 2007, dated 2013).

Target: PLK1 (Homo sapiens, UniProt P53350)
Assay: PLK1 protein kinase assay (CDC25C phosphorylation, [γ-32P]-ATP)
Format: biochemical
Conditions: Table 2, PLK1 IC50; class symbols; read-out: PLK1 IC50

PLK1, sequence (P53350 whole entry): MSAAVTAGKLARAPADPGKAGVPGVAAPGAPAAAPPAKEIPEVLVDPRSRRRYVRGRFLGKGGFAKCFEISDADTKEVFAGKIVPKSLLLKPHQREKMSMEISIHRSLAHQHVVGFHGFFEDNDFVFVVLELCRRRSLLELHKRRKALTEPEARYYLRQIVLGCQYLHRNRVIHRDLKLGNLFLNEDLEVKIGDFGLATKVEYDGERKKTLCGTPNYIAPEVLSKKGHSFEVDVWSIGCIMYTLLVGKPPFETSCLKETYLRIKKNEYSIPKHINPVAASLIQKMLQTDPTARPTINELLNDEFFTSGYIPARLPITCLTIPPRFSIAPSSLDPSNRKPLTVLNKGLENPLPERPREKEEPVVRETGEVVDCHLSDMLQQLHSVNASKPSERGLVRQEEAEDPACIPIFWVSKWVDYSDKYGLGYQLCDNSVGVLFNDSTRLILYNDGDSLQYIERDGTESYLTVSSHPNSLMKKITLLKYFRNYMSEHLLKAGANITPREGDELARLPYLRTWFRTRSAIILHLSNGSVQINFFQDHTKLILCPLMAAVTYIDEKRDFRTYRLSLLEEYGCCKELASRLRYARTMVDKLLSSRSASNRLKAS

| SMILES | IC50 [nM] |
| --- | --- |
| COc1cc(C(=O)NCc2cccn2C)ccc1Nc1ncc2c(n1)N(C1CCCC1)CCC(=O)N2C [compound 205, 4-(9-Cyclopentyl-5-methyl-6-oxo-6,7,8,9-tetrahydro-5H-pyrimido[4,5-b][1,4]diazepin-2-ylamino)-3-methoxy-N-(1-methyl-1H-pyrrol-2-ylmethyl)-benzamide] | < 100 |
| COc1cc(C(=O)NC2CCN(Cc3ccccc3)CC2)ccc1Nc1ncc2c(n1)N(C1CCCC1)CC1(CCC1)C(=O)N2C [compound 217, 4-(9-Cyclopentyl-5-methyl-6-oxo-6,7,8,9-tetrahydro-5H-spiro[pyrimido[4,5-b][1,4]diazepin-3,1′-cyclobutane]-2-ylamino)-3-methoxy-N-(1-benzylpiperidin-4-yl)-benzamide] | < 1000 |
| CCN(CC)CCNC(=O)c1ccc(Nc2ncc3c(n2)N(C2CCCC2)CC2(CCC2)C(=O)N3C)c(OC)c1 [compound 219, 4-(9-Cyclopentyl-5-methyl-6-oxo-6,7,8,9-tetrahydro-5H-spiro[pyrimido[4,5-b][1,4]diazepin-3,1′-cyclobutane]-2-ylamino)-N-(2-diethylamino-ethyl)-3-methoxy-benzamide] | < 100 |
| COc1cc(C(=O)NCc2ccco2)ccc1Nc1ncc2c(n1)N(C1CCCC1)CC1(CCC1)C(=O)N2C [compound 222, 4-(9-Cyclopentyl-5-methyl-6-oxo-6,7,8,9-tetrahydro-5H-spiro[pyrimido[4,5-b][1,4]diazepin-3,1′-cyclobutane]-2-ylamino)-N-furan-2-ylmethyl-3-methoxy-benzamide] | < 1000 |
| COc1cc(C(=O)NC2CCN(C)CC2)ccc1Nc1ncc2c(n1)N(CCC(=O)NCCO)CCC(=O)N2C [compound 223, 4-{9-[2-(2-Hydroxy-ethylcarbamoyl)-ethyl]-5-methyl-6-oxo-6,7,8,9-tetrahydro-5H-pyrimido[4,5-b][1,4]diazepin-2-ylamino}-3-methoxy-N-(1-methyl-piperidin-4-yl)-benzamide] | < 10000 |
| CNC(=O)CCN1CCC(=O)N(C)c2cnc(Nc3ccc(C(=O)NC4CCN(C)CC4)cc3OC)nc21 [compound 224, 3-Methoxy-4-[5-methyl-9-(2-methylcarbamoyl-ethyl)-6-oxo-6,7,8,9-tetrahydro-5H-pyrimido[4,5-b][1,4]diazepin-2-ylamino]-N-(1-methyl-piperidin-4-yl)-benzamide] | < 1000 |
| COc1cc(C(=O)NC2CCN(C)CC2)ccc1Nc1ncc2c(n1)N(CCC(=O)NCCCN(C)C)CCC(=O)N2C [compound 226, 4-{9-[2-(3-Dimethylamino-propylcarbamoyl)-ethyl]-5-methyl-6-oxo-6,7,8,9-tetrahydro-5H-pyrimido[4,5-b][1,4]diazepin-2-ylamino}-3-methoxy-N-(1-methyl-piperidin-4-yl)-benzamide] | < 1000 |
| CCc1cc(C(=O)O)ccc1Nc1ncc2c(n1)N(C1CCCC1)CC1(CC1)C(=O)N2C [compound 229, 4-(9-Cyclopentyl-5-methyl-6-oxo-6,7,8,9-tetrahydro-5H-pyrimido[4,5-b][1,4]diazepin-3,1′-cyclopropane-2-ylamino)-acid] | < 1000 |
| COc1cc(C(=O)O)ccc1Nc1ncc2c(n1)N(CC1CC1)CC1(CC1)C(=O)N2C [compound 230, 4-(9-Cyclopropylmethyl-5-methyl-6-oxo-6,7,8,9-tetrahydro-5H-pyrimido[4,5-b][1,4]diazepin-3,1′-cyclopropane-2-ylamino)-3-methoxy-benzoic acid] | < 1000 |
| CCN(CC)CCNC(=O)c1ccc(OC)c(Nc2ncc3c(n2)N(C2CCCC2)CCC(=O)N3C)c1 [compound 231, 3-(9-Cyclopentyl-5-methyl-6-oxo-6,7,8,9-tetrahydro-5H-pyrimido[4,5-b][1,4]diazepin-2-ylamino)-N-(2-diethylamino-ethyl)-4-methoxy-benzamide] | < 1000 |
| COc1ccc(C(=O)NCCCN(C)C)cc1Nc1ncc2c(n1)N(C1CCCC1)CCC(=O)N2C [compound 232, 3-(9-Cyclopentyl-5-methyl-6-oxo-6,7,8,9-tetrahydro-5H-pyrimido[4,5-b][1,4]diazepin-2-ylamino)-N-(3-dimethylamino-propyl)-4-methoxy-benzamide] | < 1000 |
| COc1ccc(C(=O)NCCCO)cc1Nc1ncc2c(n1)N(C1CCCC1)CCC(=O)N2C [compound 233, 3-(9-Cyclopentyl-5-methyl-6-oxo-6,7,8,9-tetrahydro-5H-pyrimido[4,5-b][1,4]diazepin-2-ylamino)-N-(3-hydroxy-propyl)-4-methoxy-benzamide] | < 1000 |

Results, then the compound that gave them:

| IC50 [nM] | SMILES |
| --- | --- |
| < 100 | COc1cc(C(=O)NC2CCCC2)ccc1Nc1ncc2c(n1)N(C1CCCC1)CCC(=O)N2C [compound 204, N-Cyclopentyl-4-(9-cyclopentyl-5-methyl-6-oxo-6,7,8,9-tetrahydro-5H-pyrimido[4,5-b][1,4]diazepin-2-ylamino)-3-methoxy-benzamide] |
| < 100 | COc1cc(C(=O)NC2CCNCC2)ccc1Nc1ncc2c(n1)N(C1CCCC1)CCC(=O)N2C [compound 206, 4-(9-Cyclopentyl-5-methyl-6-oxo-6,7,8,9-tetrahydro-5H-pyrimido[4,5-b][1,4]diazepin-2-ylamino)-3-methoxy-N-piperidin-4-yl-benzamide] |
| < 10000 | COc1cc(C(=O)NC2CCN(C)CC2)ccc1Nc1ncc2c(n1)N(C1CC1)CCC(=O)N2C [compound 207, 4-(9-Cyclopropyl-5-methyl-6-oxo-6,7,8,9-tetrahydro-5H-pyrimido[4,5-b][1,4]diazepin-2-ylamino)-3-methoxy-N-(1-methyl-piperidin-4-yl)-benzamide] |
| < 1000 | COc1cc(C(=O)NC2CCN(C)CC2)ccc1Nc1ncc2c(n1)N(CCO)CCC(=O)N2C [compound 208, 4-[9-(2-Hydroxy-ethyl)-5-methyl-6-oxo-6,7,8,9-tetrahydro-5H-pyrimido[4,5-b][1,4]diazepin-2-ylamino]-3-methoxy-N-(1-methyl-piperidin-4-yl)-benzamide] |
| < 1000 | COc1cc(C(=O)NC2CCN(S(C)(=O)=O)CC2)ccc1Nc1ncc2c(n1)N(C1CCCC1)CCC(=O)N2C [compound 209, 4-(9-Cyclopentyl-5-methyl-6-oxo-6,7,8,9-tetrahydro-5H-pyrimido[4,5-b][1,4]diazepin-2-ylamino)-N-(1-methanesulfonyl-piperidin-4-yl)-3-methoxy-benzamide] |
| < 1000 | COc1cc(C(=O)NC2CCN(C(C)=O)CC2)ccc1Nc1ncc2c(n1)N(C1CCCC1)CCC(=O)N2C [compound 210, N-(1-Acetyl-piperidin-4-yl)-4-(9-cyclopentyl-5-methyl-6-oxo-6,7,8,9-tetrahydro-5H-pyrimido[4,5-b][1,4]diazepin-2-ylamino)-3-methoxy-benzamide] |
| < 1000 | CCOC(=O)CN1CCC(NC(=O)c2ccc(Nc3ncc4c(n3)N(C3CCCC3)CCC(=O)N4C)c(OC)c2)CC1 [compound 211, {4-[4-(9-Cyclopentyl-5-methyl-6-oxo-6,7,8,9-tetrahydro-5H-pyrimido[4,5-b][1,4]diazepin-2-ylamino)-3-methoxy-benzoylamino]-piperidin-1-yl}-acetic acid ethyl ester] |
| < 1000 | COc1cc(C(=O)NC2CCN(C(=O)c3ccccc3)CC2)ccc1Nc1ncc2c(n1)N(C1CCCC1)CCC(=O)N2C [compound 212, N-(1-Benzoyl-piperidin-4-yl)-4-(9-cyclopentyl-5-methyl-6-oxo-6,7,8,9-tetrahydro-5H-pyrimido[4,5-b][1,4]diazepin-2-ylamino)-3-methoxy-benzamide] |
| < 100 | CN1CCC(NC(=O)c2ccc(Nc3ncc4c(n3)N(C3CCCC3)CCC(=O)N4C)c(Cl)c2)CC1 [compound 214, 3-Chloro-4-(9-cyclopentyl-5-methyl-6-oxo-6,7,8,9-tetrahydro-5H-pyrimido[4,5-b][1,4]diazepin-2-ylamino)-N-(1-methyl-piperidin-4-yl)-benzamide] |
| < 1000 | CN1CCC(NC(=O)c2ccc(Nc3ncc4c(n3)N(C3CCCC3)CCC(=O)N4C)c(OC(F)(F)F)c2)CC1 [compound 216, 4-(9-Cyclopentyl-5-methyl-6-oxo-6,7,8,9-tefrahydro-5H-pyrimido[4,5-b][1,4]diazepin-2-ylamino)-N-(1-methyl-piperidin-4-yl)-3-trifluoromethoxy-benzamide] |
| < 1000 | COc1cc(C(=O)NC2CCN(C)CC2)ccc1Nc1ncc2c(n1)N(CCC(=O)N(C)C)CCC(=O)N2C [compound 225, 4-[9-(2-Dimethylcarbamoyl-ethyl)-5-methyl-6-oxo-6,7,8,9-tetrahydro-5H-pyrimido[4,5-b][1,4]diazepin-2-ylamino]-3-methoxy-N-(1-methyl-piperidin-4-yl)-benzamide] |
| < 100 | CN1CCC(NC(=O)c2ccc(Nc3ncc4c(n3)N(C3CCCC3)CCC(=O)N4C)c(O)c2)CC1 [compound 228, 4-(9-Cyclopentyl-5-methyl-6-oxo-6,7,8,9-tetrahydro-5H-pyrimido[4,5-b][1,4]diazepin-2-ylamino)-3-hydroxy-N-(1-methyl-piperidin-4-yl)-benzamide] |
| < 10000 | COc1ccc(C(=O)NC(C)(C)CN2CCCCC2)cc1Nc1ncc2c(n1)N(C1CCCC1)CCC(=O)N2C [compound 234, 3-(9-Cyclopentyl-5-methyl-6-oxo-6,7,8,9-tetrahydro-5H-pyrimido[4,5-b][1,4]diazepin-2-ylamino)-N-(1,1-dimethyl-2-piperidin-1-yl-ethyl)-4-methoxy-benzamide] |
| < 1000 | COc1ccc(C(=O)NCC2CCN(C)CC2)cc1Nc1ncc2c(n1)N(C1CCCC1)CCC(=O)N2C [compound 235, 3-(9-Cyclopentyl-5-methyl-6-oxo-6,7,8,9-tetrahydro-5H-pyrimido[4,5-b][1,4]diazepin-2-ylamino)-4-methoxy-N-(1-methyl-piperidin-4-ylmethyl)-benzamide] |
| < 100 | CCN1CCC(NC(=O)c2ccc(Nc3ncc4c(n3)N(C3CCCC3)CCC(=O)N4C)c(OC)c2)CC1 [compound 237, 4-(9-Cyclopentyl-5-methyl-6-oxo-6,7,8,9-tetrahydro-5H-pyrimido[4,5-b][1,4]diazepin-2-ylamino)-N-(1-ethyl-piperidin-4-yl)-3-methoxy-benzamide] |
| < 100 | COc1cc(C(=O)NC2CCN(CC3CC3)CC2)ccc1Nc1ncc2c(n1)N(C1CCCC1)CCC(=O)N2C [compound 238, 4-(9-Cyclopentyl-5-methyl-6-oxo-6,7,8,9-tetrahydro-5H-pyrimido[4,5-b][1,4]diazepin-2-ylamino)-N-(1-cyclopropylmethyl-piperidin-4-yl)-3-methoxy-benzamide] |
